Experiments:
hPTPRA = molecular target: T1, hPTPRA (Homo sapiens, UniProt P18433); experiment: In vitro PTPase assay (DiFMUP), PTPRA; type: biochemical; details: 60-min preincubation
T1 construct: Recombinant proteins corresponding to the entire intracellular regions (ICRs) of PTPRZ1, PTPRA, and PTPRM; made in house; host or cells: baculovirus-silkworm expression system
Protocol: (§1) Figure 4 NAZ2329, an allosteric inhibitor of R5 RPTP subfamily members. (A) Structure of NAZ2329. (B) Effect of preincubation of NAZ2329 on its inhibitory activity against PTPRZ. Recombinant human PTPRZ1 enzyme (the whole intracellular region) was premixed with NAZ2329 for the indicated times and followed by addition of a fluorogenic DiFMUP (non-specific PTP substrate, 6,8-difluoro-4-methylumbiliferyl phosphate) to measure PTP inhibitory activity. (C) Time dependence. The PTPRZ1 enzyme was added to the inhibitor–substrate mixture, and the inhibitory activity was determined at each time point relative to the vehicle control. (D) Reversibility of inhibition. […] The mixture was then 20-fold diluted, and recovered PTP activity was expressed as the relative activity compared with the vehicle-treated enzyme. […] PTPRZ1 enzymes were preincubated with NAZ2329 for 60 min, and the PTP activity was measured using DiFMUP. […]
(§2) Recombinant proteins corresponding to the entire intracellular regions (ICRs) of PTPRZ1, PTPRA, and PTPRM were expressed using a baculovirus-silkworm expression system, and purified as described. The ICRs of PTPRG, PTPRS, and PTPRB and the catalytic domains of PTPN1 and PTPN6 were expressed as glutathione-S-transferase (GST) fusion proteins from each pGEX plasmid in Escherichia coli strain BL21 (ref. [6]). […]

hPTPRS = molecular target: T2, hPTPRS (Homo sapiens, UniProt Q13332); experiment: In vitro PTPase assay (DiFMUP), PTPRS; type: biochemical; details: 60-min preincubation
T2 construct: The ICRs of PTPRG, PTPRS, and PTPRB and the catalytic domains of PTPN1 and PTPN6; GST (N); made in house; host or cells: Escherichia coli BL21
T2 sequence (Q13332 1304-1948 limits assumed): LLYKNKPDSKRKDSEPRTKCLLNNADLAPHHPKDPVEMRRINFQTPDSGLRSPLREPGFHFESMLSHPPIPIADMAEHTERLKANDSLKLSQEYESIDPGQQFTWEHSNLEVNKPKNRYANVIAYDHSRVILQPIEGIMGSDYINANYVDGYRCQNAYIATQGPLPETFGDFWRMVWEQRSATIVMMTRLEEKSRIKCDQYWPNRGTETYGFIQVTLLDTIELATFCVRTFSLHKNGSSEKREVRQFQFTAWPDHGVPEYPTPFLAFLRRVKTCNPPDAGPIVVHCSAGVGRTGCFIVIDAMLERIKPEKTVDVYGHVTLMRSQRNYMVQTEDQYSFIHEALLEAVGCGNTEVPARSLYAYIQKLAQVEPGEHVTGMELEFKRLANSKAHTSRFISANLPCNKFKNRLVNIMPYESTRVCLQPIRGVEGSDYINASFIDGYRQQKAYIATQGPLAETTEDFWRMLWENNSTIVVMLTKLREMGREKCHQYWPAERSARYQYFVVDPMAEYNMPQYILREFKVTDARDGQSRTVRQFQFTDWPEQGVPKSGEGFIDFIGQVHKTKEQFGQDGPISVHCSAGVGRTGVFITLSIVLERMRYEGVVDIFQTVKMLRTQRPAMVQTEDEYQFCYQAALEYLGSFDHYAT
Protocol: as §1, §2

IC50 (hPTPRA): 35.7 µM | IC50 (hPTPRS): 23.7 µM
Compound: CCOc1ccc(C(F)(F)F)cc1CSc1ccsc1C(=O)NS(=O)(=O)c1ccccc1 [NAZ2329]

Reference: PMC5514153, “Targeting PTPRZ inhibits stem cell-like properties and tumorigenicity in glioblastoma cells” (Scientific Reports, 2017)
